Results on 14 molecules are retold here after ChEMBL document CHEMBL3044675, “Synthesis and Antifungal Activities of Some Novel Pyrimidine Derivatives” (2011).

What all share (assay type): functional
In one experiment the test system is Thanatephorus cucumeris. Description: Antifungal activity against Thanatephorus cucumeris at 50 ug/ml by poisoned food technique.
For another experiment, the system named is Sclerotinia sclerotiorum. Nature of the experiment: Antifungal activity against Sclerotinia sclerotiorum at 50 ug/ml by poisoned food technique.
The test system of another experiment is Ceratobasidium cereale. Nature of the experiment: Antifungal activity against Ceratobasidium cereale at 50 ug/ml by poisoned food technique.
In a further experiment the test system is Rhizoctonia solani. Nature of the experiment: Antifungal activity against Rhizoctonia solani at 50 ug/ml by poisoned food technique.
In a further experiment the test system is Phytophthora infestans. Description: Antifungal activity against Phytophthora infestans at 50 ug/ml by poisoned food technique.
The next experiment deals with Macrophoma. Description: Antifungal activity against Macrophoma kuwatsukai at 50 ug/ml by poisoned food technique.
A further experiment relates to Fusarium fujikuroi. Nature of the experiment: Antifungal activity against Fusarium fujikuroi at 50 ug/ml by poisoned food technique.
The next experiment has as its system Fusarium graminearum. Description: Antifungal activity against Fusarium graminearum at 50 ug/ml by poisoned food technique.
The subject of the next experiment is Mycosphaerella arachidis. Nature of the experiment: Antifungal activity against Mycosphaerella arachidis at 50 ug/ml by poisoned food technique.
Another experiment relates to Bipolaris maydis. Nature of the experiment: Antifungal activity against Cochliobolus heterostrophus at 50 ug/ml by poisoned food technique.
Another experiment concerns Botrytis cinerea. Nature of the experiment: Antifungal activity against Botryotinia fuckeliana at 50 ug/ml by poisoned food technique.
The next experiment concerns Alternaria solani. Description: Antifungal activity against Alternaria solani at 50 ug/ml by poisoned food technique.
In a further experiment the test system is Alternaria mali. Nature of the experiment: Antifungal activity against Alternaria mali at 50 ug/ml by poisoned food technique.
Another experiment relates to Alternaria kikuchiana. Description: Antifungal activity against Alternaria kikuchiana at 50 ug/ml by poisoned food technique.

In the case of `COc1ccc(/C(=C\C(=O)N2CCOCC2)c2ccc(F)cc2)cc1OC` [FLUMORPH], the Activity in the experiment with Thanatephorus cucumeris amounted to 9.8%; in the experiment on Sclerotinia sclerotiorum it was 0%; with Ceratobasidium cereale, 20%; in the experiment on Rhizoctonia solani it was 61.9%; in the experiment on Phytophthora infestans it was 4.5%; in the experiment with Macrophoma, 21.9%. Further, the Activity in the experiment on Fusarium fujikuroi is 13.3%; with Fusarium graminearum it was 7.4%; in the experiment on Mycosphaerella arachidis it was 0%; with Bipolaris maydis, 17.4%; in the experiment on Botrytis cinerea, 7.4%; in the experiment with Alternaria solani, 0%. Further, the Activity in the experiment on Alternaria mali worked out at 21.4%; in the experiment on Alternaria kikuchiana it was 18.2%.

Turning to `Cc1cc(OCc2ccc(Cl)nc2)nc(C(C)C)n1`, the Activity in the experiment on Thanatephorus cucumeris came to 80.4%; in the experiment on Sclerotinia sclerotiorum, 0%; in the experiment with Ceratobasidium cereale it was 35%; with Rhizoctonia solani it was 63.5%; in the experiment with Phytophthora infestans, 22.7%; in the experiment on Macrophoma, 31.3%. Further, the Activity in the experiment on Fusarium fujikuroi is recorded as 20%; in the experiment with Fusarium graminearum it was 25.9%; in the experiment with Mycosphaerella arachidis, 13.3%; in the experiment on Bipolaris maydis it was 34.8%; with Botrytis cinerea, 29.6%; in the experiment on Alternaria solani, 41.2%. The Activity in the experiment with Alternaria mali amounted to 21.4%; in the experiment on Alternaria kikuchiana, 45.5%.

Consider `Cc1cc(OC(=O)c2ccc(F)cc2)nc(C(C)C)n1`, for which the Activity in the experiment with Thanatephorus cucumeris was 15.7%; with Sclerotinia sclerotiorum, 40%; in the experiment on Ceratobasidium cereale, 0%; with Rhizoctonia solani, 55.6%; with Phytophthora infestans, 18.2%; with Macrophoma, 46.9%. The Activity in the experiment with Fusarium fujikuroi was determined as 46.7%; in the experiment with Mycosphaerella arachidis, 0%; with Bipolaris maydis it was 13%; in the experiment on Botrytis cinerea it was 14.8%; in the experiment on Alternaria solani it was 0%; in the experiment on Alternaria mali, 21.4%. Besides, the Activity in the experiment on Alternaria kikuchiana stood at 27.3%.

As to `COc1cc(C(=O)Oc2cc(C)nc(C(C)C)n2)cc(OC)c1OC`, the Activity in the experiment on Thanatephorus cucumeris is 9.8%; with Sclerotinia sclerotiorum, 66.7%; in the experiment with Ceratobasidium cereale, 15%; in the experiment with Rhizoctonia solani it was 63.5%; in the experiment with Macrophoma, 40.6%; in the experiment on Fusarium fujikuroi, 20%. Further, the Activity with Mycosphaerella arachidis came to 6.7%; in the experiment with Bipolaris maydis, 26.1%; in the experiment on Botrytis cinerea, 14.8%; with Alternaria solani it was 0%; in the experiment on Alternaria mali it was 28.6%; with Alternaria kikuchiana, 31.8%.

For the molecule `Cc1cc(NC2CCCCC2)nc(C(C)C)n1`, the Activity with Thanatephorus cucumeris was determined as 52.9%; in the experiment on Sclerotinia sclerotiorum, 33.3%; in the experiment on Ceratobasidium cereale it was 0%; in the experiment with Rhizoctonia solani it was 55.6%; in the experiment on Phytophthora infestans, 36.4%; with Macrophoma, 0%. Besides, the Activity with Fusarium fujikuroi was determined as 13.3%; with Fusarium graminearum it was 22.2%; in the experiment with Mycosphaerella arachidis, 46.7%; with Bipolaris maydis, 13%; in the experiment with Botrytis cinerea it was 3.7%; in the experiment on Alternaria solani, 0%. Further, the Activity came to 21.4% with Alternaria mali and 27.3% with Alternaria kikuchiana.

Turning to `Cc1cc(OC(=O)N2CCOCC2)nc(C(C)C)n1`, the Activity stood at 19.6% in the experiment with Thanatephorus cucumeris; 0% with Sclerotinia sclerotiorum; 20% with Ceratobasidium cereale; 61.9% with Rhizoctonia solani; 0% in the experiment on Phytophthora infestans; 31.3% in the experiment with Macrophoma. Further, the Activity with Fusarium fujikuroi is reported as 6.7%; with Fusarium graminearum, 7.4%; in the experiment on Mycosphaerella arachidis it was 6.7%; with Bipolaris maydis it was 17.4%; in the experiment with Botrytis cinerea, 18.5%; in the experiment on Alternaria solani it was 0%. The Activity in the experiment with Alternaria mali was determined as 0%; in the experiment with Alternaria kikuchiana it was 40.9%.

On to `Cc1cc(C)nc(Nc2ccccc2)n1` [PYRIMETHANIL], for which the Activity in the experiment with Thanatephorus cucumeris turned out to be 98%; with Sclerotinia sclerotiorum, 86.7%; in the experiment on Ceratobasidium cereale it was 40%; with Rhizoctonia solani it was 77.8%; in the experiment with Phytophthora infestans, 22.7%; in the experiment with Macrophoma, 100%. For the same molecule, the Activity in the experiment with Fusarium fujikuroi is reported as 20%; with Fusarium graminearum, 44.4%; in the experiment with Mycosphaerella arachidis, 100%; in the experiment with Bipolaris maydis it was 91.3%; in the experiment on Botrytis cinerea, 96.3%; in the experiment with Alternaria solani it was 100%. The values for the Activity with Alternaria mali and in the experiment with Alternaria kikuchiana were 21.4% and 100%, respectively.

On to `COC(=O)Nc1nc2ccccc2[nH]1` [CARBENDAZIM], for which the Activity in the experiment on Thanatephorus cucumeris is reported as 98%; with Sclerotinia sclerotiorum, 73.3%; in the experiment on Ceratobasidium cereale, 100%; in the experiment on Rhizoctonia solani, 100%; with Phytophthora infestans, 27.3%; in the experiment with Macrophoma, 43.8%. Moreover, the Activity with Fusarium fujikuroi turned out to be 60%; in the experiment with Fusarium graminearum it was 59.3%; with Mycosphaerella arachidis, 53.3%; in the experiment with Bipolaris maydis, 69.6%; with Botrytis cinerea it was 63%; in the experiment on Alternaria solani it was 76.5%. Also, the Activity in the experiment with Alternaria mali amounted to 78.6%; in the experiment on Alternaria kikuchiana, 81.8%.

As for `Cc1cc(O)no1` [HYMEXAZOL], the Activity in the experiment with Thanatephorus cucumeris came out at 78.4%; in the experiment with Sclerotinia sclerotiorum it was 66.7%; with Ceratobasidium cereale it was 25%; in the experiment on Rhizoctonia solani it was 63.5%; in the experiment with Phytophthora infestans it was 36.4%; in the experiment with Macrophoma it was 50%. The Activity with Fusarium fujikuroi was 40%; with Fusarium graminearum, 33.3%; in the experiment with Mycosphaerella arachidis it was 93.3%; in the experiment with Bipolaris maydis, 34.8%; in the experiment on Botrytis cinerea it was 70.4%; in the experiment with Alternaria solani, 88.2%. Further, the Activity with Alternaria mali amounted to 85.7%; in the experiment on Alternaria kikuchiana, 81.8%.

In the case of `Cc1cc(OCc2cnc(Cl)s2)nc(C(C)C)n1`, the Activity in the experiment on Thanatephorus cucumeris was determined as 3.9%; in the experiment with Sclerotinia sclerotiorum, 0%; with Ceratobasidium cereale, 30%; with Rhizoctonia solani it was 61.9%; in the experiment on Phytophthora infestans it was 0%; in the experiment on Macrophoma it was 31.3%. For the same molecule, the Activity worked out at 20% with Fusarium fujikuroi; 14.8% with Fusarium graminearum; 0% in the experiment with Mycosphaerella arachidis; 17.4% in the experiment with Bipolaris maydis; 7.4% in the experiment on Botrytis cinerea; 0% with Alternaria solani. Besides, the Activity is reported as 0% in the experiment with Alternaria mali and 18.2% with Alternaria kikuchiana.

With `Cc1cc(Nc2ccc(OC(F)(F)F)cc2)nc(C(C)C)n1`, the Activity was 76.5% in the experiment with Thanatephorus cucumeris; 0% in the experiment with Sclerotinia sclerotiorum; 25% in the experiment on Ceratobasidium cereale; 66.7% in the experiment with Rhizoctonia solani; 36.4% with Phytophthora infestans; 25% in the experiment on Macrophoma. Moreover, the Activity in the experiment on Fusarium fujikuroi is 40%; with Fusarium graminearum, 44.4%; in the experiment with Mycosphaerella arachidis, 46.7%; with Bipolaris maydis, 39.1%; in the experiment on Botrytis cinerea it was 25.9%; with Alternaria solani, 35.3%. Also, the results for the Activity with Alternaria mali and in the experiment with Alternaria kikuchiana were 50% and 63.6%, respectively.

With `Cc1cc(Nc2ccccc2)nc(C(C)C)n1`, the Activity in the experiment with Thanatephorus cucumeris came out at 39.2%; in the experiment on Sclerotinia sclerotiorum, 0%; in the experiment on Ceratobasidium cereale, 5%; with Rhizoctonia solani, 57.1%; with Phytophthora infestans it was 0%; with Macrophoma it was 21.9%. Moreover, the Activity with Fusarium fujikuroi worked out at 0%; in the experiment with Fusarium graminearum it was 7.4%; in the experiment on Mycosphaerella arachidis, 33.3%; with Bipolaris maydis, 26.1%; with Botrytis cinerea it was 7.4%; in the experiment with Alternaria solani, 11.8%. Besides, the results for the Activity in the experiment on Alternaria mali and with Alternaria kikuchiana were 21.4% and 27.3%, respectively.

For the molecule `COc1cc(OC)nc(NCc2ccc(Cl)nc2)n1`, the Activity with Thanatephorus cucumeris was found to be 2%; in the experiment on Sclerotinia sclerotiorum, 20%; in the experiment with Ceratobasidium cereale, 5%; in the experiment on Rhizoctonia solani, 54%; in the experiment on Phytophthora infestans, 9.1%; in the experiment with Macrophoma, 46.9%. In addition, the Activity with Fusarium fujikuroi is on record as 20%; in the experiment on Fusarium graminearum, 0%; in the experiment on Mycosphaerella arachidis, 0%; in the experiment with Bipolaris maydis, 17.4%; in the experiment with Botrytis cinerea it was 40.7%; in the experiment on Alternaria solani, 0%. For the same molecule, the Activity is on record as 0% with Alternaria mali and 18.2% in the experiment on Alternaria kikuchiana.

With `COc1cc(OC)nc(NCc2cnc(Cl)s2)n1`, the Activity is on record as 2% in the experiment on Thanatephorus cucumeris; 0% in the experiment with Sclerotinia sclerotiorum; 5% in the experiment with Ceratobasidium cereale; 60.3% in the experiment with Rhizoctonia solani; 0% with Phytophthora infestans; 46.9% with Macrophoma. Moreover, the Activity in the experiment on Fusarium fujikuroi is given as 26.7%; in the experiment on Fusarium graminearum, 29.6%; in the experiment on Mycosphaerella arachidis it was 13.3%; in the experiment on Bipolaris maydis, 17.4%; in the experiment with Botrytis cinerea it was 37%; in the experiment on Alternaria solani, 5.9%. Also, the Activity in the experiment with Alternaria mali is 21.4%; in the experiment with Alternaria kikuchiana, 31.8%.
